In brackets after ≈: the same amount, converted by molar mass. Activity calls are given as the source filed them. The calls are words filed in the database; no cut-off is given here.
What was measured:
[1] = Half life in male C57BL/6 mouse at 2 mg/kg, iv measured up to 24 hrs by LC-MS/MS analysis; assay type: ADME, organism-based; conditions: in vivo
[2] = Metabolic stability in mouse liver microsome assessed as half life at 1 uM measured up to 60 mins in presence of NADPH by LC-MS/MS analysis; assay type: ADME; conditions: liver microsomes
CYP3A4 = CYP3A4 (Homo sapiens, UniProt P08684); assay: Inhibition of CYP3A4 in human liver microsome using testosterone as substrate at 10 uM preincubated for 5 mins followed by NADPH addition and measured after 10 mins by LC-MS/MS analysis relative to control; assay type: ADME; conditions: human liver microsomes, probe testosterone, time 15 min
Chain of CYP3A4 (P08684 whole entry): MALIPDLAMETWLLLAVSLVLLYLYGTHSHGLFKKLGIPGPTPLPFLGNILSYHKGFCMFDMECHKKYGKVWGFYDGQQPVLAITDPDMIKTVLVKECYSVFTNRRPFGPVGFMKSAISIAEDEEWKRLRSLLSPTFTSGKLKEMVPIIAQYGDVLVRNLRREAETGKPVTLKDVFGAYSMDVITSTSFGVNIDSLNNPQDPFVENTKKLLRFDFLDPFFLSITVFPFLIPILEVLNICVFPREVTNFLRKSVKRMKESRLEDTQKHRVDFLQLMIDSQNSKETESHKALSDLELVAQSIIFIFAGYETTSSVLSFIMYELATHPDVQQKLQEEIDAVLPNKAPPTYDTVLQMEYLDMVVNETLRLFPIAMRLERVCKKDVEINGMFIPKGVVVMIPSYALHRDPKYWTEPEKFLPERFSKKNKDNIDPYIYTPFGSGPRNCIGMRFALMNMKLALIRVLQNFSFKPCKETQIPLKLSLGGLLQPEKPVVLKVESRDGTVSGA

[3] = Tmax in Sprague-Dawley rat at 10 mg/kg, po measured up to 24 hrs by LC-MS/MS analysis; assay type: ADME, organism-based; conditions: in vivo
[4] = Plasma protein binding in human assessed as unbound fraction incubated for 2 hrs by rapid equilibrium dialysis; assay type: ADME, cell-free
Mus musculus [5] = assay: Anti-psoriasis effect in IMQ-induced C57BL/6 mouse assessed as reduction in erythema intensity administered topically twice daily for 6 days and measured after 24 hrs; assay type: functional, organism-based; conditions: dose 10-100 mg/kg, time 7.0 day
[6] = Cmax in male C57BL/6 mouse at 2 mg/kg, iv measured up to 24 hrs by LC-MS/MS analysis; assay type: ADME, organism-based; conditions: in vivo
[7] = Metabolic stability in cynomolgus monkey liver microsome assessed as half life at 1 uM measured up to 60 mins in presence of NADPH by LC-MS/MS analysis; assay type: ADME, Macaca fascicularis; conditions: liver microsomes
[8] = target: T1, Protein cereblon/Interleukin-1 receptor-associated kinase 4 (Mus musculus) (UniProt Q8C7D2+Q8R4K2); assay: In-vivo PROTAC activity at C57BL/6 mouse assessed as reduction in IRAK4 level in spleen at 10 mg/kg, po measured after 24 hrs by Western blot analysis; assay type: functional, organism-based; parameters: scale not given: the % may be the effect or the level left
T1 sequence (Q8C7D2 whole entry, looked up): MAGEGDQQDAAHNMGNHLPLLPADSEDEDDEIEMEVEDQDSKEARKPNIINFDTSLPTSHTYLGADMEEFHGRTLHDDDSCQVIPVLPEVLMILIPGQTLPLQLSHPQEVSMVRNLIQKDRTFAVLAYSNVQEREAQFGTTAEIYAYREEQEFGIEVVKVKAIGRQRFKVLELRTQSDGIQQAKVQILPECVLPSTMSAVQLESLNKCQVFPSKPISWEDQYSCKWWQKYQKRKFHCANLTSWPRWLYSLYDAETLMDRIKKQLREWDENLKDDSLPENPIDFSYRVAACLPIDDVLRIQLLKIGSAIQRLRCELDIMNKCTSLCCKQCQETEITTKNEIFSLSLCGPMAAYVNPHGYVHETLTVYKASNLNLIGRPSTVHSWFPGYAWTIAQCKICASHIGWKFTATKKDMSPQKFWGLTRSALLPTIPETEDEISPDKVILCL
T1 sequence (Q8R4K2 whole entry, looked up): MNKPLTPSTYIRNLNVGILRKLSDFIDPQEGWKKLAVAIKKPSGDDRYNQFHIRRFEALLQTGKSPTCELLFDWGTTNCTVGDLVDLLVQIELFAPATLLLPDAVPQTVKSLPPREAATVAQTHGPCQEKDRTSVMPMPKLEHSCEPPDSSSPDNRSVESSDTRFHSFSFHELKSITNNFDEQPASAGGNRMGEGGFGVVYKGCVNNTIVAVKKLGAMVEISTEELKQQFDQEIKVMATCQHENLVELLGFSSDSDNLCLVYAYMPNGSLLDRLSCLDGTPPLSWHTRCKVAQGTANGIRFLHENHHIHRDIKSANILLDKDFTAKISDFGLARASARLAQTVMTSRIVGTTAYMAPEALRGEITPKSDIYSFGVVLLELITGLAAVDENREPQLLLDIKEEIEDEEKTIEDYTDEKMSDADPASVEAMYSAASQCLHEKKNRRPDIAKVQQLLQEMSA

[9] = Tmax in male C57BL/6 mouse at 10 mg/kg, po measured up to 24 hrs by LC-MS/MS analysis; assay type: ADME, organism-based; conditions: in vivo
[10] = Half life in male C57BL/6 mouse at 10 mg/kg, po measured up to 24 hrs by LC-MS/MS analysis; assay type: ADME, organism-based; conditions: in vivo
CYP2C8 = target: T2, CYP2C8 (Homo sapiens, UniProt P10632); assay: Inhibition of CYP2C8 in human liver microsome using amodiaquine as substrate at 10 uM preincubated for 5 mins followed by NADPH addition and measured after 5 mins by LC-MS/MS analysis relative to control; assay type: ADME; conditions: human liver microsomes, probe amodiaquine, time 10 min
T2 sequence (P10632 whole entry): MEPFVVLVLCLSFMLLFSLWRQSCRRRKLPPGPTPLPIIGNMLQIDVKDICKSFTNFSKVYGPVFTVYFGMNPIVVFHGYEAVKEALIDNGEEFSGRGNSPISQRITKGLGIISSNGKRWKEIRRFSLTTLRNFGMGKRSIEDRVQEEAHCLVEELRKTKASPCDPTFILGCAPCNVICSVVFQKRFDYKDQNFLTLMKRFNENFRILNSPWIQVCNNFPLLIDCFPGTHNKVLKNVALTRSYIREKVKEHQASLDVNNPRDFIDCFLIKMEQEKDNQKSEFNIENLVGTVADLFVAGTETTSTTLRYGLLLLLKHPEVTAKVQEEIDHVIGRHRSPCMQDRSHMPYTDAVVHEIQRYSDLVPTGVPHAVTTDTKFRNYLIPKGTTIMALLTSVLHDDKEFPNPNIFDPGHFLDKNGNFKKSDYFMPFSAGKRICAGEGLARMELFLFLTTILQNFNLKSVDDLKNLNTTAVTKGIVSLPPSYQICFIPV

CYP2C9 = CYP2C9 (Homo sapiens, UniProt P11712); assay: Inhibition of CYP2C9 in human liver microsome using diclofenac as substrate at 10 uM preincubated for 5 mins followed by NADPH addition and measured after 10 mins by LC-MS/MS analysis relative to control; assay type: ADME; conditions: human liver microsomes, probe diclofenac, time 15 min
Chain of CYP2C9 (P11712 whole entry): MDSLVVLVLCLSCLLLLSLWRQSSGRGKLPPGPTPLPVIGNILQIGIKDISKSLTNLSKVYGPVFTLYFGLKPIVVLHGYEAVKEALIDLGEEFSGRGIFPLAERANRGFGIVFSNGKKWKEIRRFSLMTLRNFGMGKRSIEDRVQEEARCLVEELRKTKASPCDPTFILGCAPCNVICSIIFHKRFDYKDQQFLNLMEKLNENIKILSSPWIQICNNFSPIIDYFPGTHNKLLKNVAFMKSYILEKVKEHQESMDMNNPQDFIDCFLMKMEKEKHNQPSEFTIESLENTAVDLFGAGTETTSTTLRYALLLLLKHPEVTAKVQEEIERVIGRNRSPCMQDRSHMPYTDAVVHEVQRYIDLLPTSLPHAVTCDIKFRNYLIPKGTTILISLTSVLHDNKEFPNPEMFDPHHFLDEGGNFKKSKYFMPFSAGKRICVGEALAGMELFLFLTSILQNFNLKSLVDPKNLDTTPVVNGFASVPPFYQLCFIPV

[11] = Half life in Beagle dog at 10 mg/kg, po measured up to 24 hrs by LC-MS/MS analysis; assay type: ADME, organism-based, Canis lupus familiaris; conditions: in vivo
[12] = Permeability across apical to basal side in human Caco-2 cells incubated for 120 mins by LC-MS/MS analysis; assay type: ADME, cell-based; conditions: read-out: permeability
[13] = Cmax in Sprague-Dawley rat at 10 mg/kg, po measured up to 24 hrs by LC-MS/MS analysis; assay type: ADME, organism-based; conditions: in vivo
[14] = Metabolic stability mouse hepatocyte assessed as half life at 1 uM measured up to 120 mins by LC-MS/MS analysis; assay type: ADME, cell-based; conditions: hepatocytes
[15] = Volume of distribution at steady state in male C57BL/6 mouse at 2 mg/kg, iv measured up to 24 hrs by LC-MS/MS analysis; assay type: ADME, organism-based; conditions: in vivo, read-out: Vdss
CYP2C19 = CYP2C19 (Homo sapiens, UniProt P33261); assay: Inhibition of CYP2C19 in human liver microsome using (S)-mephenytoin as substrate at 10 uM preincubated for 5 mins followed by NADPH addition and measured after 30 mins by LC-MS/MS analysis relative to control; assay type: ADME; conditions: human liver microsomes, probe (S)-mephenytoin, time 35 min
Chain of CYP2C19 (P33261 whole entry): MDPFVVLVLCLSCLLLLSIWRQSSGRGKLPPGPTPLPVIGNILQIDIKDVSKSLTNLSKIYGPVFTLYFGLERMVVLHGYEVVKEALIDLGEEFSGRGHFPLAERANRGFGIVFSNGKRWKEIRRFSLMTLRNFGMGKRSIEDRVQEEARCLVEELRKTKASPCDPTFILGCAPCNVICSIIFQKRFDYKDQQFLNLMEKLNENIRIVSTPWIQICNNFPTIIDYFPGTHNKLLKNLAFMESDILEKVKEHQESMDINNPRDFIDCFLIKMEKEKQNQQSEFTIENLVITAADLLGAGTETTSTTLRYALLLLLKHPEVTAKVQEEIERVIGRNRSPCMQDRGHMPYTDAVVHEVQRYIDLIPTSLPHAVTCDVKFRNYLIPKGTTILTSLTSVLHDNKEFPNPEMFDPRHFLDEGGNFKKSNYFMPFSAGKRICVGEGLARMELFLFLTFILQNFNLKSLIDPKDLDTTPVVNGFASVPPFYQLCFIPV

[16] = Metabolic stability monkey hepatocyte assessed as half life at 1 uM measured up to 120 mins by LC-MS/MS analysis; assay type: ADME, cell-based, Macaca mulatta; conditions: rhesus monkey, hepatocytes
[17] = Kinetic solubility of compound in FaSSGF at […] incubated for 2 hr by LC-MS analysis; assay type: physicochemical; conditions: read-out: Kinetic_solubility
[18] = Metabolic stability in human liver microsome assessed as half life at 1 uM measured up to 60 mins in presence of NADPH by LC-MS/MS analysis; assay type: ADME; conditions: liver microsomes
[19] = Half life in Sprague-Dawley rat at 10 mg/kg, po measured up to 24 hrs by LC-MS/MS analysis; assay type: ADME, organism-based; conditions: in vivo
[20] = Cmax in Beagle dog at 2 mg/kg, iv measured up to 24 hrs by LC-MS/MS analysis; assay type: ADME, organism-based, Canis lupus familiaris; conditions: in vivo
[21] = Metabolic stability rat hepatocyte assessed as half life at 1 uM measured up to 120 mins by LC-MS/MS analysis; assay type: ADME, cell-based; conditions: hepatocytes
[22] = target: T1, Protein cereblon/Interleukin-1 receptor-associated kinase 4 (Mus musculus); assay: In-vivo PROTAC activity at C57BL/6 mouse assessed as reduction in IRAK4 level in spleen at 100 mg/kg, po measured after 24 hrs by Western blot analysis; assay type: functional, organism-based; parameters: scale not given: the % may be the effect or the level left
[23] = target: Protein cereblon/Sal-like protein 4 (Homo sapiens) (UniProt Q96SW2+Q9UJQ4); assay: PROTAC activity at CRBN/SALL4 in human PBMC cells assessed as induction of SALL4 degradation at 1 uM by Western blot analysis; assay type: cell-based
Chain of Protein cereblon/Sal-like protein 4 (Homo sapiens) (Q96SW2 whole entry, looked up): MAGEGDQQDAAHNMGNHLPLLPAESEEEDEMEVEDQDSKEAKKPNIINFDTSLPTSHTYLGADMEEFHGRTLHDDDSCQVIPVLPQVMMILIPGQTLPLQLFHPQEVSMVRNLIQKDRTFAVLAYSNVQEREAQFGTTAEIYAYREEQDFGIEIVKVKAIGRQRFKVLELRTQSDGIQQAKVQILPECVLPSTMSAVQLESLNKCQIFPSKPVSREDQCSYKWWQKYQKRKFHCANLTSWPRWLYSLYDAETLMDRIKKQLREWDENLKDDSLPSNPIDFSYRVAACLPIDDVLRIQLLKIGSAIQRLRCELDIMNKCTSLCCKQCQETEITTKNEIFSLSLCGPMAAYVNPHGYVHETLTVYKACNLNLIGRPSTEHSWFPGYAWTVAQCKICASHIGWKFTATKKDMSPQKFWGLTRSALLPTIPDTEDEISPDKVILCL
Chain of Protein cereblon/Sal-like protein 4 (Homo sapiens) (Q9UJQ4 whole entry, looked up): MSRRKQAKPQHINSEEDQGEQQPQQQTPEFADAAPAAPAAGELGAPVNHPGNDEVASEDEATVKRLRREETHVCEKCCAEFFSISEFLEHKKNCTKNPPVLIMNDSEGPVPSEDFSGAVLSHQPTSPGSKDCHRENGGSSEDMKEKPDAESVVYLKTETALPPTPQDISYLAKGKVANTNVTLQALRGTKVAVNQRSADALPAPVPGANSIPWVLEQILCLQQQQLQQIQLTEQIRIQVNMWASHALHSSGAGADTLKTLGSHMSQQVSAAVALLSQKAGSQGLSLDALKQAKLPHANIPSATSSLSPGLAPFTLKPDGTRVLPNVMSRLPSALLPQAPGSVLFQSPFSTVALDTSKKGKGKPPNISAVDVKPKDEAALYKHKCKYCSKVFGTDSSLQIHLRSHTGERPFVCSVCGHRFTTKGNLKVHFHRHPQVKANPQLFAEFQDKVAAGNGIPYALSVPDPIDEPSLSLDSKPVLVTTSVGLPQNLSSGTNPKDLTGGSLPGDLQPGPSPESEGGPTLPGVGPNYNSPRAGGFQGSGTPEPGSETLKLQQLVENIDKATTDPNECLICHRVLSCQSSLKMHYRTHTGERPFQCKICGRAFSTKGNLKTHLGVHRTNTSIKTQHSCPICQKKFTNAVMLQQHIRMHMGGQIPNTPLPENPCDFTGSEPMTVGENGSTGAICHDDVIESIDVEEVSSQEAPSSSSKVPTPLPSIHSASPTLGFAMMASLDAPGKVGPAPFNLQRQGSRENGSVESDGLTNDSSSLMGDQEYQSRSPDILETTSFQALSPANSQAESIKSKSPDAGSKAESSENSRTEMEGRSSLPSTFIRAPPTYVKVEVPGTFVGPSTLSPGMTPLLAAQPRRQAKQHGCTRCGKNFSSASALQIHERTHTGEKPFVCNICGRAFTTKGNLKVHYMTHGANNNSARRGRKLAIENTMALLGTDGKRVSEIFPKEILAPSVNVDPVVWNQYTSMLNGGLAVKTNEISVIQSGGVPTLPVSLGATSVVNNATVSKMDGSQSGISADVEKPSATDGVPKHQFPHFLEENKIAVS

[24] = target: Protein cereblon/Interleukin-1 receptor-associated kinase 4 (Homo sapiens, UniProt Q9NWZ3+Q96SW2); assay: PROTAC activity at CRBN/IRAK4 in human THP-1 cells assessed as induction of IRAK4 degradation incubated for 24 hrs by HiBiT lytic reagent based analysis relative to control; assay type: cell-based
Chain of Protein cereblon/Interleukin-1 receptor-associated kinase 4 (Q96SW2 whole entry, looked up): as the sequence (Q96SW2 whole entry, looked up) above
Chain of Protein cereblon/Interleukin-1 receptor-associated kinase 4 (Q9NWZ3 whole entry, looked up): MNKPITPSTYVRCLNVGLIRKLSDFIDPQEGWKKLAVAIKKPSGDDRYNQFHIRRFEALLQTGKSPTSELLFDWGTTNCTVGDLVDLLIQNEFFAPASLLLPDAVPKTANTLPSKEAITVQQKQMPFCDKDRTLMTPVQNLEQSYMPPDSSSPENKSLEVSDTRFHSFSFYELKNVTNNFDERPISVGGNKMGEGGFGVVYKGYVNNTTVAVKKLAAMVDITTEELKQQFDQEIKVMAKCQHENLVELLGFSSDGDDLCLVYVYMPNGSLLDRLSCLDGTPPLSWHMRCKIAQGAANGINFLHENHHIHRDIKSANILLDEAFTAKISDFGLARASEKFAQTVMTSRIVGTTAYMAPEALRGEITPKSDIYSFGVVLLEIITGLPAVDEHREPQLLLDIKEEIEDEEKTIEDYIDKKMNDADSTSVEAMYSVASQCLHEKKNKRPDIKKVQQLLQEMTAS

Mus musculus [25] = assay: Anti-psoriasis effect in IMQ-induced C57BL/6 mouse assessed as reduction in spleen weight at 30 mg/kg administered topically twice daily for 6 days and measured after 24 hrs; assay type: functional, organism-based; conditions: time 7.0 day
[26] = Oral bioavailability in cynomolgus monkey at 20 mg/kg measured up to 24 hrs by LC-MS/MS analysis; assay type: ADME, organism-based, Macaca fascicularis; conditions: in vivo

Cn1c(=O)n(C2CCC(=O)NC2=O)c2cccc(C#CCO[C@H]3CC[C@H](CN4CCC5(CC4)Cc4cc(NC(=O)c6coc7cccnc67)c(N6CCC(CO)CC6)cc4O5)CC3)c21 (stereo not given in full)
half-life [1]: 3.12 h | half-life at 1 µM [2]: 1.52 h | inhibition at 10 min, 10 µM (CYP3A4): 10.2% | Tmax [3]: 6 h | Fu [4]: < 0.08% | Activity (Mus musculus [5]): Dose-dependent-effect | Cmax [6]: 1870 ng/mL | half-life at 1 µM [7]: 1.98 h | Activity [8]: 74% | Tmax [9]: 2.67 h | half-life [10]: 4.34 h | inhibition at 5 min, 10 µM (CYP2C8): 12.4% | inhibition at 10 min, 10 µM (CYP2C9): 13.9% | half-life [11]: 10.6 h | Papp A→B at 2 h [12]: 0.09 ×10⁻⁶ cm/s | Cmax [13]: 613 ng/mL | half-life at 1 µM [14]: 3.42 h | Vd [15]: 0.88 L/kg | inhibition at 0.5 h, 10 µM (CYP2C19): 45.1% | half-life at 1 µM [16]: > 6.18 h | solubility kinetic at 2 h [17]: 252 µg/mL (≈ 290 µM) | half-life at 1 µM [18]: > 3.07 h | half-life [19]: 3.43 h | Cmax [20]: 599 ng/mL | half-life at 1 µM [21]: 2.65 h | Activity [22]: > 80% | Activity [23]: inactive | Emax [24]: 94% | Activity (Mus musculus [25]): Active | bioavailability [26]: 11%

— ChEMBL document CHEMBL6182949 (J Med Chem, 2025)
